These compounds were tested against T1, HPK1 (Homo sapiens, UniProt Q92918) (assay: HPK1 Cellular HiBiT Degradation Assay). Details: HiBiT-tagged HPK1 Jurkat cells, 24 hours, 10 uM to 0.1 nM; Dmax = 100 minus lowest % HPK1 remaining vs DMSO vehicle.
T1 construct: A HiBiT tag was introduced by CRISPR on the N terminus of HPK1 in Jurkat cells; host or cells: Jurkat (ATCC TIB-152), monoclonal CRISPR HiBiT knock-in line
T1 sequence (Q92918 whole entry): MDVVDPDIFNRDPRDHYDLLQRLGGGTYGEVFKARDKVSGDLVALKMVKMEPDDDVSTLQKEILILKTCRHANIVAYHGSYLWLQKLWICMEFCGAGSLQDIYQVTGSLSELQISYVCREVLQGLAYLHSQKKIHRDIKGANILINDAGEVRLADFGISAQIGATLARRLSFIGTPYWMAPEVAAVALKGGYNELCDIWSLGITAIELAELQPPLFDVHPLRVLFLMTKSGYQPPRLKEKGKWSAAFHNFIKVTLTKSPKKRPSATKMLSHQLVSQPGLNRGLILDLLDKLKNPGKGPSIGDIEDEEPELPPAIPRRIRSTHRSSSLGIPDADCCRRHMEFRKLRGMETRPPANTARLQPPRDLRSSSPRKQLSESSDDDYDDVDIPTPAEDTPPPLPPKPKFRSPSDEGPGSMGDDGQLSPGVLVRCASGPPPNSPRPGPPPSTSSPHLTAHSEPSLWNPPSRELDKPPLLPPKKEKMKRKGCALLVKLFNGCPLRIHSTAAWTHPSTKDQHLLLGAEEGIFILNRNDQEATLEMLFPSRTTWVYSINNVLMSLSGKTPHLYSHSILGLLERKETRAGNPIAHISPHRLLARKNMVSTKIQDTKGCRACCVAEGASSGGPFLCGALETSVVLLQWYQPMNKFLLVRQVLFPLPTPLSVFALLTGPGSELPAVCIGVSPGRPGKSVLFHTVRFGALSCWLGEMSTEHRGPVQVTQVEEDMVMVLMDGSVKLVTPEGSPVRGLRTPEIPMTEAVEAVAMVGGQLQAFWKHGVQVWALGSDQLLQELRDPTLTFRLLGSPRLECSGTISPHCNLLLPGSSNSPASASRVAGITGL
Format: cell-based
In short: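 Dmax is derived from four-parameter curves of % HPK1 remaining, as 100 minus the lowest value, normalized to DMSO-treated cells with parental Jurkat background subtracted. HiBiT-HPK1 knock-in Jurkat cells got compound for 24 hours (final 10 uM to 0.1 nM, 11 points) before lytic HiBiT luminescence. Cytotoxicity was checked on parallel CellTiter-Glo plates.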
Compound `Cc1cc(F)c(Nc2nc(-c3ccc4c(c3)N([C@H]3C[C@@H](N5CCCCC5)C3)C(=O)C43CCN(C(=O)CCCCCC(=O)N[C@H](C(=O)N4C[C@H](O)C[C@H]4C(=O)N[C@@H](C)c4ccc(-c5scnc5C)cc4)C(C)(C)C)CC3)cc3ncn(C(C)C)c23)cc1C(=O)NC(C)C` [Example 7, (2S,4R)-1-((S)-2-(7-(6-(4-((2-fluoro-5-(isopropylcarbamoyl)-4-methylphenyl)amino)-3-isopropyl-3H-imidazo[4,5-c]pyridin-6-yl)-2-oxo-1-((1s,3s)-3-(piperidin-1-yl)cyclobutyl)spiro[indoline-3,4′-piperidin]-1′-yl)-7-oxoheptanamido)-3,3-dimethylbutanoyl)-4-hydroxy-N—((S)-1-(4-(4-methylthiazol-5-yl)phenyl)ethyl)pyrrolidine-2-carboxamide] has a Dmax greater than 65%. With `Cc1cc(F)c(Nc2nc(-c3ccc4c(c3)N([C@H]3C[C@@H](N5CCCCC5)C3)C(=O)C43CCN(C(=O)C4CCN(C(=O)C5CCC(Nc6cccc7c6C(=O)N(C6CCC(=O)NC6=O)C7=O)CC5)C4)CC3)cc3ncn(C(C)C)c23)cc1C(=O)NC(C)C` (stereo partly drawn) [Example 26, 4-fluoro-2-methyl-5-[(6-{2-oxo-1′-[1-[(1R,4R)-4-({2-[2,6-dioxopiperidin-3-yl]-1,3-dioxo-2,3-dihydro-1H-isoindol-4-yl}amino)cyclohexanecarbonyl]pyrrolidine-3-carbonyl]-1-[(1s,3s)-3-(piperidin-1-yl)cyclobutyl]-1,2-dihydrospiro[indole-3,4′-piperidin]-6-yl}-3-(propan-2-yl)-3H-imidazo[4,5-c]pyridin-4-yl)amino]-N-(propan-2-yl)benzamide] the Dmax was 45 to 65%. `Cc1cc(F)c(Nc2nc(-c3ccc4c(c3)N([C@H]3C[C@@H](N5CCCCC5)C3)C(=O)C43CCN(C(=O)Cc4ccc(N5CCN(CC(=O)N[C@H](C(=O)N6C[C@H](O)C[C@H]6C(=O)N[C@@H](C)c6ccc(-c7scnc7C)cc6)C(C)(C)C)CC5)cc4)CC3)cc3ncn(C(C)C)c23)cc1C(=O)NC(C)C` [Example 47, (2S,4R)-1-[(2S)-2-(2-{4-[4-(2-{6-[4-({2-fluoro-4-methyl-5-[(propan-2-yl)carbamoyl]phenyl}amino)-3-(propan-2-yl)-3H-imidazo[4,5-c]pyridin-6-yl]-2-oxo-1-[(1s,3s)-3-(piperidin-1-yl)cyclobutyl]-1,2-dihydrospiro[indole-3,4′-piperidin]-1′-yl}-2-oxoethyl)phenyl]piperazin-1-yl}acetamido)-3,3-dimethylbutanoyl]-4-hydroxy-N-[(1S)-1-[4-(4-methyl-1,3-thiazol-5-yl)phenyl]ethyl]pyrrolidine-2-carboxamide] gave a Dmax greater than 65%. `Cc1cc(F)c(Nc2nc(-c3ccc4c(c3)N([C@H]3C[C@@H](N5CCCCC5)C3)C(=O)C43CCN(C(=O)C4CN(CC5CCN(c6cccc7c6C(=O)N(C6CCC(=O)NC6=O)C7=O)C5)C4)CC3)cc3ncn(C(C)C)c23)cc1C(=O)NC(C)C` (stereo partly shown) [Example 35, 5-({6-[1′-(1-{[1-{2-[2,6-dioxopiperidin-3-yl]-1,3-dioxo-2,3-dihydro-1H-isoindol-4-yl}pyrrolidin-3-yl]methyl}azetidine-3-carbonyl)-2-oxo-1-[(1s,3s)-3-(piperidin-1-yl)cyclobutyl]-1,2-dihydrospiro[indole-3,4′-piperidin]-6-yl]-3-(propan-2-yl)-3H-imidazo[4,5-c]pyridin-4-yl}amino)-4-fluoro-2-methyl-N-(propan-2-yl)benzamide] gave a Dmax of 45 to 65%.
